Where two headings read alike, the source gives them in different places.
Assays:
[1] = molecular target: T1, LYP (Homo sapiens, UniProt Q9Y2R2); conditions: Spectrum collection screen, cited from earlier work
T1 sequence (Q9Y2R2 24-289 limits assumed): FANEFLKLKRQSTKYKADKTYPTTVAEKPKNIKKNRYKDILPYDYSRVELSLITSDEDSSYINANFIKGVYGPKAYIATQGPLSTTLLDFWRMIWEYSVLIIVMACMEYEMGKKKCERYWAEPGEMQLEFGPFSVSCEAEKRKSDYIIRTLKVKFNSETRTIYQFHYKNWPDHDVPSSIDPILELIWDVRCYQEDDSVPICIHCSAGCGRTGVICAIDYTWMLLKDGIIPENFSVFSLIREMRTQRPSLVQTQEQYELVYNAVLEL

[2] = molecular target: T1, LYP; format: biochemical; conditions: for kcat: pH 6.5
[3] = molecular target: T1, LYP; experiment: LYP inhibition, follow-up of the 1536-well HTS, pCAP or OMFP substrate; format: biochemical

Molecule	inhibition of LYP activity, DiFMUP-based screen ([1]; DiFMUP as substrate) [%]	inhibition of LYP activity, peptide-based screen ([1]; peptide 2 as substrate)	Km [2] [µM]	kcat/Km [2]	kcat [2] [s⁻¹]	IC50 ([3]; read-out: IC50, OMFP substrate, assayed using the OMFP substrate) [nM]	IC50 ([3]; read-out: IC50, pCAP substrate, assayed using the pCAP substrate) [nM]
Cc1ccc(C(=O)Nc2ccc(S(=O)(=O)O)c3cc(S(=O)(=O)O)cc(S(=O)(=O)O)c23)cc1NC(=O)c1cccc(NC(=O)Nc2cccc(C(=O)Nc3cc(C(=O)Nc4ccc(S(=O)(=O)O)c5cc(S(=O)(=O)O)cc(S(=O)(=O)O)c45)ccc3C)c2)c1 [suramin]	~40	nearly all	–	–	–	–	–
Ac-ARLIEDNE-pY-TAREG-NH2 [Peptide 2a]	–	–	130 ± 20	52,000,000 M^−1s^−1	6700 ± 400	–	–
Ac-ARLIEDNE-pCAP-TAREG-NH2 [Peptide 2]	–	–	200 ± 60	27,000,000 M^−1s^−1	5400 ± 1000	–	–
O=C(O)COc1ccc(/C=N/NC(=O)c2ccc(-c3csc(Nc4ccc(Cl)cc4)n3)cc2)cc1 [CID9595032]	–	–	–	–	–	1500	530

From publication PMC3899110 (Methods (San Diego, Calif.), 2013)
